How the values were obtained:
Test in all cases: NCI 60 growth inhibition
Assay type in all cases: cell-based, human
[1] = system: HOP-92; conditions: HOP-92, Non-Small Cell Lung Cancer
[2] = system: OVCAR-3; conditions: OVCAR-3, Ovarian Cancer
[3] = system: A498; conditions: A498, Renal Cancer
[4] = system: HS 578T; conditions: Breast Cancer
[5] = system: DU-145; conditions: DU-145, Prostate Cancer
[6] = system: U251; conditions: U251, CNS Cancer
[7] = system: 786-0; conditions: 786-0, Renal Cancer
[8] = system: HOP-62; conditions: HOP-62, Non-Small Cell Lung Cancer
[9] = system: NCI-H460; conditions: NCI-H460, Non-Small Cell Lung Cancer
[10] = system: KM12; conditions: KM12, Colon Cancer
[11] = system: OVCAR-4; conditions: OVCAR-4, Ovarian Cancer
[12] = system: UO-31; conditions: UO-31, Renal Cancer
[13] = system: EKVX; conditions: Non-Small Cell Lung Cancer
[14] = system: MDA-MB-231/ATCC; conditions: Breast Cancer
[15] = system: SF-268; conditions: SF-268, CNS Cancer
[16] = system: TK-10; conditions: TK-10, Renal Cancer
[17] = system: OVCAR-8; conditions: OVCAR-8, Ovarian Cancer
[18] = system: SNB-75; conditions: SNB-75, CNS Cancer
[19] = system: NCI/ADR-RES; conditions: Ovarian Cancer
[20] = system: SR; conditions: Leukemia
[21] = system: NCI-H226; conditions: NCI-H226, Non-Small Cell Lung Cancer
[22] = system: SF-295; conditions: SF-295, CNS Cancer
[23] = system: SK-OV-3; conditions: SK-OV-3, Ovarian Cancer
[24] = system: RPMI-8226; conditions: RPMI-8226, Leukemia
[25] = system: HCT-15; conditions: HCT-15, Colon Cancer

C=C1C(=O)O[C@H]2[C@H]1CC/C(Cn1cc(-c3ccsc3)nn1)=C\CC[C@@]1(C)O[C@@H]21 [JVM 4-53]
GI50 ([1]; Table 3): 1660 nM
GI50 ([2]; Table 3): 1060 nM
GI50 ([3]; Table 3): 2650 nM
GI50 ([4]; Table 3): 2820 nM
GI50 ([5]; Table 3): 1430 nM
GI50 ([6]; Table 3): 2500 nM
GI50 ([7]; Table 3): 1760 nM
GI50 ([8]; Table 3): 4900 nM
GI50 ([9]; Table 3): 4710 nM
GI50 ([10]; Table 3): 6450 nM
GI50 ([11]; Table 3): 2480 nM
GI50 ([12]; Table 3): 1350 nM
GI50 ([13]; Table 3): 2330 nM
GI50 ([14]; Table 3): 1750 nM
GI50 ([15]; Table 3): 2530 nM
GI50 ([16]; Table 3): 1520 nM
GI50 ([17]; Table 3): 2960 nM
GI50 ([18]; Table 3): 3230 nM
GI50 ([19]; Table 3): 3790 nM
GI50 ([20]; Table 3): 560 nM
GI50 ([21]; Table 3): 2090 nM
GI50 ([22]; Table 3): 9610 nM
GI50 ([23]; Table 3): 17400 nM
GI50 ([24]; Table 3): 2450 nM
GI50 ([25]; Table 3): 1110 nM

C=C1C(=O)O[C@H]2[C@H]1CC/C(Cn1cc(-c3ccccc3)nn1)=C\CC[C@@]1(C)O[C@@H]21 [JVM 3-74, (1aR,7aS,10aS,10bS,E)-1a-Methyl-8-methylene-5-((4-phenyl-1H-1,2,3-triazol-1-yl)methyl)-2,3,6,7,7a,8,10a,10b-octahydrooxireno[2′,3′:9,10]cyclodeca[1,2-b]furan-9(1aH)-one]
GI50 ([1]; Homo sapiens, Table 2): 1420 nM
GI50 ([2]; Homo sapiens, Table 2): 1400 nM
GI50 ([3]; Homo sapiens, Table 2): 7800 nM
GI50 ([4]; Homo sapiens, Table 2): 9780 nM
GI50 ([5]; Homo sapiens, Table 2): 2190 nM
GI50 ([6]; Homo sapiens, U-251, Table 2): 7960 nM
GI50 ([7]; Homo sapiens, Table 2): 2630 nM
GI50 ([8]; Homo sapiens, Table 2): 7410 nM
GI50 ([9]; Homo sapiens, Table 2): 7740 nM
GI50 ([10]; Homo sapiens, Table 2): 8480 nM
GI50 ([11]; Homo sapiens, Table 2): 3220 nM
GI50 ([12]; Homo sapiens, Table 2): 870 nM
GI50 ([13]; Homo sapiens, Table 2): 6870 nM
GI50 ([14]; Homo sapiens, Table 2): 2000 nM
GI50 ([15]; Homo sapiens, Table 2): 5630 nM
GI50 ([16]; Homo sapiens, Table 2): 1210 nM
GI50 ([17]; Homo sapiens, Table 2): 2310 nM
GI50 ([18]; Homo sapiens, Table 2): 6210 nM
GI50 ([19]; Homo sapiens, Table 2): 6170 nM
GI50 ([20]; Homo sapiens, Table 2): 1060 nM
GI50 ([21]; Homo sapiens, Table 2): 4600 nM
GI50 ([22]; Homo sapiens, Table 2): 7890 nM
GI50 ([23]; Homo sapiens, Table 2): 9950 nM
GI50 ([24]; Homo sapiens, Table 2): 1710 nM
GI50 ([25]; Homo sapiens, Table 2): 770 nM

C=C1C(=O)O[C@H]2[C@H]1CC/C(Cn1cc(-c3ccccc3C(F)(F)F)nn1)=C\CC[C@@]1(C)O[C@@H]21 [JVM 4-59]
GI50 ([1]; Table 3): 1480 nM
GI50 ([2]; Table 3): 1040 nM
GI50 ([3]; Table 3): 3860 nM
GI50 ([4]; Table 3): 3570 nM
GI50 ([5]; Table 3): 1420 nM
GI50 ([6]; Table 3): 1830 nM
GI50 ([7]; Table 3): 1840 nM
GI50 ([8]; Table 3): 4730 nM
GI50 ([9]; Table 3): 3970 nM
GI50 ([10]; Table 3): 5880 nM
GI50 ([11]; Table 3): 2770 nM
GI50 ([12]; Table 3): 1230 nM
GI50 ([13]; Table 3): 2320 nM
GI50 ([14]; Table 3): 1640 nM
GI50 ([15]; Table 3): 2090 nM
GI50 ([16]; Table 3): 1710 nM
GI50 ([17]; Table 3): 2230 nM
GI50 ([18]; Table 3): 2970 nM
GI50 ([19]; Table 3): 2990 nM
GI50 ([21]; Table 3): 1730 nM
GI50 ([22]; Table 3): 10300 nM
GI50 ([23]; Table 3): 17300 nM
GI50 ([24]; Table 3): 1870 nM
GI50 ([25]; Table 3): 1050 nM
